Measured values reported in ChEMBL document CHEMBL1152074, “Synthesis and antimalarial evaluation of 2,3,5-trioxabicyclo[2.2.2]octanes, models for the putative pharmacophore of qinghaosu (artemisinin)” (Bioorg Med Chem Lett, 1992).
Converted amounts (≈) assume the structure as drawn.

Columns and labels:
Type in all cases: functional, organism-based
[1] = tested on: Plasmodium falciparum; test: Inhibitory concentration IC50 against chloroquine-resistant falciparum indochina(W-2) malaria in humans; 7079-48759
[2] = tested on: Plasmodium falciparum; test: Inhibitory concentration (IC50) against chloroquine-sensitive falciparum sierra leone […] in human malaria; 10000-46608
[3] = tested on: Plasmodium falciparum; test: Inhibitory concentration (IC50) against chloroquine-sensitive falciparum sierra leone […] in human malaria
[4] = tested on: Plasmodium falciparum; test: Inhibitory concentration (IC50) against chloroquine-resistant falciparum Indochina W2 in human malaria
[5] = tested on: Plasmodium falciparum; test: Inhibitory concentration (IC50) against chloroquine-sensitive falciparum sierra leone […] in human malaria; 979-50000
[6] = tested on: Plasmodium falciparum; test: Inhibitory concentration (IC50) against chloroquine-resistant falciparum indochina W-2 in human malaria; 60-50000
[7] = tested on: Plasmodium falciparum; test: Inhibitory concentration IC50 against chloroquine-resistant falciparum W-2 indochina human malaria; 8000-18088
[8] = tested on: Plasmodium falciparum; test: Inhibitory concentration (IC50) against chloroquine-sensitive falciparum sierra leone […] in human malaria; 9569-21648
[9] = Plasmodium falciparum, read-out: IC50

CO[C@]1(C)CC[C@@H](OO)CO1
IC50 [1]: 7.08 µg/mL (≈ 43.6 µM) | IC50 [2]: 10 µg/mL (≈ 61.7 µM)

CC12CCC(CO1)OO2 (stereo unspecified)
IC50 [3]: 50 µg/mL (≈ 384 µM) | IC50 [4]: > 100 µg/mL

C1CC2OCC1OO2 (stereo unspecified)
IC50 [5]: 0.979 µg/mL (≈ 8.43 µM) | IC50 [6]: 0.06 µg/mL (≈ 0.517 µM)

COC1CC[C@@H]([C@H](C)O)OO1 (stereo partly specified)
IC50 [3]: 7.35 µg/mL (≈ 45.3 µM) | IC50 [4, 9]: 12.3 µg/mL (≈ 75.7 µM)

COC1CCC(CO)OO1 (stereo unspecified)
IC50 [3]: 0.531 µg/mL (≈ 3.58 µM) | IC50 [4, 9]: 0.454 µg/mL (≈ 3.06 µM)

C[C@@H]1OC2CCC1OO2 (stereo partly specified)
IC50 [3]: 28.5 µg/mL (≈ 219 µM) | IC50 [4, 9]: 28.8 µg/mL (≈ 222 µM)

C[C@H]1OC2CCC1OO2 (stereo partly specified)
IC50 [3]: 8.46 µg/mL (≈ 65 µM) | IC50 [4, 9]: 13.1 µg/mL (≈ 101 µM)

COC1CCC(OO)CO1 (stereo unspecified)
IC50 [3]: 0.472 µg/mL (≈ 3.19 µM) | IC50 [4, 9]: 1.05 µg/mL (≈ 7.06 µM)

CO[C@H]1CC[C@@H](OO)[C@@H](C)O1
IC50 [7]: 8 µg/mL (≈ 49.3 µM) | IC50 [8]: 9.57 µg/mL (≈ 59 µM)

CO[C@H]1CC[C@H](OO)[C@@H](C)O1
IC50 [3]: 1.01 µg/mL (≈ 6.2 µM) | IC50 [4, 9]: 3.44 µg/mL (≈ 21.2 µM)

C[C@@H]1CC[C@H]2[C@@H](C)C(=O)O[C@@H]3O[C@@]4(C)CC[C@@H]1[C@]32OO4 [ARTEMISININ]
IC50 [3]: 0.00202 µg/mL (≈ 0.00715 µM)
